Measurements as given in the NIST ThermoML archive (doi:10.1007/s10765-005-5567-5).
Numbers after ± are expanded uncertainties.

Conditions: Liquid; for thermal conductivity: Coaxial cylinder method; for viscosity: Capillary tube (Ostwald / Ubbelohde) method

O [water]
thermal conductivity (298.3 K, 100 kPa): 0.607 ± 0.017 W/m/K | thermal conductivity (298.3 K, 10000 kPa): 0.613 ± 0.017 W/m/K | thermal conductivity (298.3 K, 30000 kPa): 0.623 ± 0.018 W/m/K | viscosity (299.76 K, 100 kPa): 0.8591 ± 0.027 mPa·s | viscosity (299.76 K, 10000 kPa): 0.8561 ± 0.027 mPa·s | viscosity (299.76 K, 30000 kPa): 0.8551 ± 0.027 mPa·s | thermal conductivity (313.1 K, 100 kPa): 0.629 ± 0.018 W/m/K | thermal conductivity (313.1 K, 10000 kPa): 0.634 ± 0.018 W/m/K | thermal conductivity (313.1 K, 30000 kPa): 0.644 ± 0.018 W/m/K | viscosity (315.62 K, 100 kPa): 0.6245 ± 0.02 mPa·s | viscosity (315.62 K, 10000 kPa): 0.6234 ± 0.02 mPa·s | viscosity (315.62 K, 30000 kPa): 0.6292 ± 0.02 mPa·s | viscosity (328.37 K, 100 kPa): 0.5 ± 0.016 mPa·s | viscosity (328.37 K, 10000 kPa): 0.503 ± 0.016 mPa·s | viscosity (328.37 K, 30000 kPa): 0.5071 ± 0.016 mPa·s | thermal conductivity (333.3 K, 100 kPa): 0.651 ± 0.018 W/m/K | thermal conductivity (333.3 K, 10000 kPa): 0.656 ± 0.018 W/m/K | thermal conductivity (333.3 K, 30000 kPa): 0.666 ± 0.019 W/m/K | viscosity (347.95 K, 100 kPa): 0.3761 ± 0.012 mPa·s | viscosity (347.95 K, 10000 kPa): 0.3803 ± 0.012 mPa·s | viscosity (347.95 K, 30000 kPa): 0.3872 ± 0.012 mPa·s | thermal conductivity (352.9 K, 100 kPa): 0.667 ± 0.019 W/m/K | thermal conductivity (352.9 K, 10000 kPa): 0.672 ± 0.019 W/m/K | thermal conductivity (352.9 K, 30000 kPa): 0.682 ± 0.019 W/m/K | thermal conductivity (363.4 K, 100 kPa): 0.673 ± 0.019 W/m/K | thermal conductivity (363.4 K, 10000 kPa): 0.678 ± 0.019 W/m/K | thermal conductivity (363.4 K, 30000 kPa): 0.689 ± 0.019 W/m/K | viscosity (375.85 K, 10000 kPa): 0.2772 ± 0.0087 mPa·s | viscosity (375.85 K, 30000 kPa): 0.2833 ± 0.0089 mPa·s | thermal conductivity (393.1 K, 10000 kPa): 0.689 ± 0.019 W/m/K | thermal conductivity (393.1 K, 30000 kPa): 0.702 ± 0.02 W/m/K | viscosity (403.95 K, 10000 kPa): 0.2131 ± 0.0067 mPa·s | viscosity (403.95 K, 30000 kPa): 0.2181 ± 0.0068 mPa·s | thermal conductivity (423.3 K, 10000 kPa): 0.691 ± 0.019 W/m/K | thermal conductivity (423.3 K, 30000 kPa): 0.704 ± 0.02 W/m/K | viscosity (431.43 K, 10000 kPa): 0.1738 ± 0.0054 mPa·s | viscosity (431.43 K, 30000 kPa): 0.1786 ± 0.0056 mPa·s | thermal conductivity (448.7 K, 10000 kPa): 0.685 ± 0.019 W/m/K | thermal conductivity (448.7 K, 30000 kPa): 0.699 ± 0.02 W/m/K | thermal conductivity (474.3 K, 10000 kPa): 0.672 ± 0.019 W/m/K | thermal conductivity (474.3 K, 30000 kPa): 0.689 ± 0.019 W/m/K | viscosity (476.4 K, 10000 kPa): 0.1326 ± 0.0042 mPa·s | viscosity (476.4 K, 30000 kPa): 0.1375 ± 0.0043 mPa·s | thermal conductivity (499.3 K, 10000 kPa): 0.652 ± 0.018 W/m/K | thermal conductivity (499.3 K, 30000 kPa): 0.672 ± 0.019 W/m/K | viscosity (502.75 K, 10000 kPa): 0.1189 ± 0.0038 mPa·s | viscosity (502.75 K, 30000 kPa): 0.1239 ± 0.0039 mPa·s | thermal conductivity (523.4 K, 10000 kPa): 0.624 ± 0.018 W/m/K | thermal conductivity (523.4 K, 30000 kPa): 0.649 ± 0.018 W/m/K | viscosity (524.75 K, 10000 kPa): 0.1081 ± 0.0035 mPa·s | viscosity (524.75 K, 30000 kPa): 0.1132 ± 0.0036 mPa·s | thermal conductivity (548.4 K, 10000 kPa): 0.591 ± 0.017 W/m/K | thermal conductivity (548.4 K, 30000 kPa): 0.622 ± 0.018 W/m/K | viscosity (549.5 K, 10000 kPa): 0.0961 ± 0.0031 mPa·s | viscosity (549.5 K, 30000 kPa): 0.1011 ± 0.0032 mPa·s | thermal conductivity (573.5 K, 10000 kPa): 0.547 ± 0.015 W/m/K | thermal conductivity (573.5 K, 30000 kPa): 0.588 ± 0.017 W/m/K | viscosity (574.54 K, 10000 kPa): 0.0851 ± 0.0028 mPa·s | viscosity (574.54 K, 30000 kPa): 0.0918 ± 0.003 mPa·s
